# Results published in patent US5075287A, “Muramyl peptide derivatives and immunoregulating compositions containing them” (priority 1989, dated 1991).
# Read-outs that look alike come from different tables or passages of the source.
# Legend:
# [1] = test system: hepatitis B virus surface antigen (HBs); test: Hepatitis-vaccine enhancing activity (adjuvant activity): anti-HBs IgG in mouse serum by ELISA; type: in vivo, female CDF1 mice
# Experimental: A compound of the present invention was dissolved in lipidmicrosphere (1 mg/ml). On the other hand, a solution of hepatitis B virus surface antigen (HBs) in physiological saline was prepared (50 μg/ml). The above solutions in equal amounts were mixed to prepare a test solution. A control solution was prepared by the exclusion of the compound of the present invention from said test solution. A mixture of a suspension of aluminium hydroxide gel in physiological saline (1 mg/ml) and said hepatitis vaccine preparation in equal amounts was prepared as another control solution. The test solution (0.2 ml) was intraperitoneally administered to each mouse in one group consisting of seven female CDF1 mice.
# Blood samples were collected from the fundus ocluli vein of each mouse every week after the administration and then centrifuged to obtain serums. Three weeks after the administration, 0.2 ml of the test liquid was intraperitoneally administered again to each mouse for secondary stimulation. Then blood collecting was conducted every week to obtain serums after the application of the secondary stimulation, in the same manner as that described above.
# The amount of the IgG antibodies against the hepatitis B virus surface antigens (HBs) in the serums thus obtained was determined with an ELISA method.
# [2] = test system: influenza HA vaccine (B/Nagasaki/1/87 strain); type: in vivo, female CDF1 mice
# [3] = test system: L-1210 mouse leukemia cells; test: Activation of macrophages (growth inhibition of tumor cells by intraperitoneal macrophages of treated mice, MTT assay); type: cell-based; settings: macrophages taken 3 days after i.p. 0.2 ml of 500 μg/ml, macrophage:L-1210 20:1, 72 hours
# Experimental: A compound of the present invention was dissolved in lipidmicrosphere to obtain a solution in a concentration of 500μg/ml, and 0.2 ml of such solution was intraperitoneally administered to each mouse in one group consisting of seven female CDF1 mice. Intraperitoneal macrophages obtained three days after the administration and L-1210 mouse leukemia cells were mixed in the ratio of cell numbers of 20:1, respectively. Two hundred μl of the mixture was placed in each well of one sheet of 96 well microtiter plate. After 72 hours, the increase of the cell number in each well was determined by a MTT assay method. The ratio of the cell number for the mixture of the L-1210 cells and the macrophage relative to the cell number for the L-1210 cells only(growth inhibitory ratio) was determined, and the results are shown in Table 3.
# [4] = Experiment 1, 1 W after i.p. administration, 5000-fold dilution, compound in lipidmicrosphere + HBs
# [5] = Experiment 1, 2 W, 5000-fold dilution
# [6] = Experiment 1, 3 W, 5000-fold dilution
# [7] = Experiment 1, 4 W (after secondary stimulation at 3 weeks), 5000-fold dilution
# [8] = Experiment 1, 5 W (after secondary stimulation at 3 weeks), 5000-fold dilution
# [9] = Experiment 1, 1 W after i.p. administration, 5000-fold dilution, compound in lipidmicrosphere + HA vaccine
# [10] = Experiment 2, 1 W, 2000-fold dilution
# [11] = Experiment 2, 2 W, 2000-fold dilution
# [12] = Experiment 2, 3 W, 2000-fold dilution
# [13] = Experiment 2, 4 W (after secondary stimulation at 3 weeks), 2000-fold dilution
# [14] = Experiment 2, 5 W (after secondary stimulation at 3 weeks), 2000-fold dilution
# [15] = Experiment 2, 1 W, 8000-fold dilution
# [16] = Experiment 2, 2 W, 8000-fold dilution
# [17] = Experiment 2, 3 W, 8000-fold dilution
# [18] = Experiment 2, 4 W (after secondary stimulation at 3 weeks), 8000-fold dilution
# [19] = Experiment 2, 5 W (after secondary stimulation at 3 weeks), 8000-fold dilution
smiles,measurement,setting,value
CCCCCCCCCCCCCCC(CCCCCCCCCCCCCC)C(=O)O[C@H]1O[C@H](CO)[C@@H](O)[C@H](O[C@H](C)C(=O)N[C@@H](C)C(=O)N[C@H](CCC(=O)OC)C(N)=O)[C@H]1NC(C)=O [Example 1],Anti-HBs IgG antibody level in serum (ELISA absorbance at 415 nm),[1]; [4],0.001 ± 0.001 O.D 415 nm
same,Anti-HBs IgG antibody level in serum (ELISA absorbance at 415 nm),[1]; [5],0.018 ± 0.000 O.D 415 nm
same,Anti-HBs IgG antibody level in serum (ELISA absorbance at 415 nm),[1]; [6],0.074 ± 0.002 O.D 415 nm
same,Anti-HBs IgG antibody level in serum (ELISA absorbance at 415 nm),[1]; [7],0.815 ± 0.011 O.D 415 nm
same,Anti-HBs IgG antibody level in serum (ELISA absorbance at 415 nm),[1]; [8],0.843 ± 0.005 O.D 415 nm
same,Anti HA serum antigen value (average value ± S.D.),[2]; [9],0.007 ± 0.003 O.D 415 nm
same,Anti HA serum antigen value (average value ± S.D.),[2]; [5],0.174 ± 0.003 O.D 415 nm
same,Anti HA serum antigen value (average value ± S.D.),[2]; [6],0.232 ± 0.003 O.D 415 nm
same,Anti HA serum antigen value (average value ± S.D.),[2]; [7],1.243 ± 0.036 O.D 415 nm
same,Anti HA serum antigen value (average value ± S.D.),[2]; [8],1.201 ± 0.002 O.D 415 nm
same,Growth inhibitory ratio of L-1210 mouse leukemia cells,[3],40.0%
CCCCCCCCCCCCCCC(CCCCCCCCCCCCCC)C(=O)S[C@@H]1O[C@H](CO)[C@@H](O)[C@H](O[C@H](C)C(=O)N[C@@H](C)C(=O)N[C@H](CCC(=O)OC)C(N)=O)[C@H]1NC(C)=O [Example 2],Anti-HBs IgG antibody level in serum (ELISA absorbance at 415 nm),[1]; [4],0 O.D 415 nm
same,Anti-HBs IgG antibody level in serum (ELISA absorbance at 415 nm),[1]; [5],0.023 ± 0.000 O.D 415 nm
same,Anti-HBs IgG antibody level in serum (ELISA absorbance at 415 nm),[1]; [6],0.076 ± 0.001 O.D 415 nm
same,Anti-HBs IgG antibody level in serum (ELISA absorbance at 415 nm),[1]; [7],0.975 ± 0.008 O.D 415 nm
same,Anti-HBs IgG antibody level in serum (ELISA absorbance at 415 nm),[1]; [8],0.930 ± 0.004 O.D 415 nm
same,Anti HA serum antigen value (average value ± S.D.),[2]; [9],0.003 ± 0.001 O.D 415 nm
same,Anti HA serum antigen value (average value ± S.D.),[2]; [5],0.172 ± 0.004 O.D 415 nm
same,Anti HA serum antigen value (average value ± S.D.),[2]; [6],0.420 ± 0.005 O.D 415 nm
same,Anti HA serum antigen value (average value ± S.D.),[2]; [7],0.447 ± 0.029 O.D 415 nm
same,Anti HA serum antigen value (average value ± S.D.),[2]; [8],1.418 ± 0.035 O.D 415 nm
same,Growth inhibitory ratio of L-1210 mouse leukemia cells,[3],41.3%
"CCCCCCCCCCCCCC(=O)O[C@H](CCCCCCCCCCC)CC(=O)O[C@H]1O[C@H](CO)[C@@H](O)[C@H](O[C@H](C)C(=O)N[C@@H](C)C(=O)N[C@H](CCC(=O)OC)C(N)=O)[C@H]1NC(C)=O [Example 25, N-[2-0-{2-Acetamido-2,3-dideoxy-1-0-((3R)-3-tetradecanoyloxytetradecanoyl}-α-D-glucopyranos-3-yl}-D-lactoyl]-L-alanyl-D-isoglutamine methylester]",Anti-HBs IgG antibody level in serum (ELISA absorbance at 415 nm),[1]; [10],0.004 ± 0.002 O.D 415 nm
same,Anti-HBs IgG antibody level in serum (ELISA absorbance at 415 nm),[1]; [11],0.021 ± 0.001 O.D 415 nm
same,Anti-HBs IgG antibody level in serum (ELISA absorbance at 415 nm),[1]; [12],0.031 ± 0.004 O.D 415 nm
same,Anti-HBs IgG antibody level in serum (ELISA absorbance at 415 nm),[1]; [13],0.402 ± 0.011 O.D 415 nm
same,Anti-HBs IgG antibody level in serum (ELISA absorbance at 415 nm),[1]; [14],0.434 ± 0.021 O.D 415 nm
same,Anti HA serum antigen value (average value ± S.D.),[2]; [15],0.009 ± 0.001 O.D 415 nm
same,Anti HA serum antigen value (average value ± S.D.),[2]; [16],0.109 ± 0.002 O.D 415 nm
same,Anti HA serum antigen value (average value ± S.D.),[2]; [17],0.149 ± 0.004 O.D 415 nm
same,Anti HA serum antigen value (average value ± S.D.),[2]; [18],0.623 ± 0.019 O.D 415 nm
same,Anti HA serum antigen value (average value ± S.D.),[2]; [19],0.719 ± 0.021 O.D 415 nm
"CCCCCCCCCCCCCCCCCC(=O)OC[C@H]1O[C@H](OC(=O)C[C@@H](CCCCCCCCCCC)OC(=O)CCCCCCCCCCCCC)[C@H](NC(C)=O)[C@@H](O[C@H](C)C(=O)N[C@@H](C)C(=O)N[C@H](CCC(=O)OC)C(N)=O)[C@@H]1O [Example 26, N-[2-0-{2-Acetamido-2,3-dideoxy-6-0-octadecanoyl-1-0-((3R)-3-tetradecanoyloxytetradecanoyl)-α-D-glucopyranos-3-yl}-D-lactoyl]-L-alanyl-D-isogluatmine methylester]",Anti-HBs IgG antibody level in serum (ELISA absorbance at 415 nm),[1]; [10],0.001 ± 0.006 O.D 415 nm
same,Anti-HBs IgG antibody level in serum (ELISA absorbance at 415 nm),[1]; [11],0.015 ± 0.006 O.D 415 nm
same,Anti-HBs IgG antibody level in serum (ELISA absorbance at 415 nm),[1]; [12],0.032 ± 0.008 O.D 415 nm
same,Anti-HBs IgG antibody level in serum (ELISA absorbance at 415 nm),[1]; [13],0.192 ± 0.002 O.D 415 nm
same,Anti-HBs IgG antibody level in serum (ELISA absorbance at 415 nm),[1]; [14],0.163 ± 0.004 O.D 415 nm
same,Anti HA serum antigen value (average value ± S.D.),[2]; [15],0.004 ± 0.003 O.D 415 nm
same,Anti HA serum antigen value (average value ± S.D.),[2]; [16],0.038 ± 0.001 O.D 415 nm
same,Anti HA serum antigen value (average value ± S.D.),[2]; [17],0.054 ± 0.001 O.D 415 nm
same,Anti HA serum antigen value (average value ± S.D.),[2]; [18],0.208 ± 0.001 O.D 415 nm
same,Anti HA serum antigen value (average value ± S.D.),[2]; [19],0.206 ± 0.002 O.D 415 nm
"CCCCCCCCCCCCCCCCCCCCCCCC(=O)O[C@H](CCCCCCCCCCC)CC(=O)S[C@@H]1O[C@H](CO)[C@@H](O)[C@H](O[C@H](C)C(=O)N[C@@H](C)C(=O)N[C@H](CCC(=O)OC)C(N)=O)[C@H]1NC(C)=O [Example 27, N-[2-0-{2-Acetamido-2,3-dideoxy-1-S-((3R)-3-tetracosanoyloxytetradecanoyl)-1-thio-β-D-glucopyranos-3-yl}-D-lactoyl]-L-alanyl-D-isoglutamine methylester]",Anti-HBs IgG antibody level in serum (ELISA absorbance at 415 nm),[1]; [10],0.003 ± 0.003 O.D 415 nm
same,Anti-HBs IgG antibody level in serum (ELISA absorbance at 415 nm),[1]; [11],0.031 ± 0.002 O.D 415 nm
same,Anti-HBs IgG antibody level in serum (ELISA absorbance at 415 nm),[1]; [12],0.052 ± 0.000 O.D 415 nm
same,Anti-HBs IgG antibody level in serum (ELISA absorbance at 415 nm),[1]; [13],0.580 ± 0.016 O.D 415 nm
same,Anti-HBs IgG antibody level in serum (ELISA absorbance at 415 nm),[1]; [14],0.573 ± 0.013 O.D 415 nm
same,Anti HA serum antigen value (average value ± S.D.),[2]; [15],0 O.D 415 nm
same,Anti HA serum antigen value (average value ± S.D.),[2]; [16],0.110 ± 0.003 O.D 415 nm
same,Anti HA serum antigen value (average value ± S.D.),[2]; [17],0.161 ± 0.003 O.D 415 nm
same,Anti HA serum antigen value (average value ± S.D.),[2]; [18],0.751 ± 0.004 O.D 415 nm
same,Anti HA serum antigen value (average value ± S.D.),[2]; [19],0.805 ± 0.008 O.D 415 nm
"CCCCCCCCCCCCCCCCCCCCCCCC(=O)O[C@H](CCCCCCCCCCC)CC(=O)S[C@@H]1O[C@H](COC(=O)CCCCCCCCCCCCCCCCC)[C@@H](O)[C@H](O[C@H](C)C(=O)N[C@@H](C)C(=O)N[C@H](CCC(=O)OC)C(N)=O)[C@H]1NC(C)=O [Example 28, N-[2-0-{2-Acetamido-2,3-dideoxy-6-0-octadecanoyl-1-S-((3R}-3-tetracosanoyloxytetradecanoyl)-1-thio-β-D-glucopyranos-3-Yl}-D-lactoyl]-L-alanyl-D-isoglutamine methylester]",Anti-HBs IgG antibody level in serum (ELISA absorbance at 415 nm),[1]; [10],0.005 ± 0.003 O.D 415 nm
same,Anti-HBs IgG antibody level in serum (ELISA absorbance at 415 nm),[1]; [11],0.062 ± 0.004 O.D 415 nm
same,Anti-HBs IgG antibody level in serum (ELISA absorbance at 415 nm),[1]; [12],0.086 ± 0.004 O.D 415 nm
same,Anti-HBs IgG antibody level in serum (ELISA absorbance at 415 nm),[1]; [13],0.611 ± 0.018 O.D 415 nm
same,Anti-HBs IgG antibody level in serum (ELISA absorbance at 415 nm),[1]; [14],0.543 ± 0.029 O.D 415 nm
same,Anti HA serum antigen value (average value ± S.D.),[2]; [15],0.008 ± 0.004 O.D 415 nm
same,Anti HA serum antigen value (average value ± S.D.),[2]; [16],0.041 ± 0.004 O.D 415 nm
same,Anti HA serum antigen value (average value ± S.D.),[2]; [17],0.061 ± 0.001 O.D 415 nm
same,Anti HA serum antigen value (average value ± S.D.),[2]; [18],0.787 ± 0.018 O.D 415 nm
same,Anti HA serum antigen value (average value ± S.D.),[2]; [19],0.779 ± 0.024 O.D 415 nm
